Calls of active or inactive are those of the source. The calls are words filed in the database; no cut-off is given here.
Key:
Cucumis sativus [1] = assay: Stimulation of radicular growth in Cucumis sativus at 1000 ppm after 3 days; type: functional, organism-based
Cucumis sativus [2] = assay: Stimulation of radicular growth in Cucumis sativus at 100 ppm after 3 days; type: functional, organism-based
Sorghum bicolor [3] = assay: Inhibition of radicular growth in Sorghum bicolor at 1000 ppm after 3 days; type: functional; conditions: 72 h
Cucumis sativus [4] = assay: Inhibition of radicular growth in Cucumis sativus at 1000 ppm after 3 days; type: functional, organism-based
Sorghum bicolor [5] = assay: Inhibition of radicular growth in Sorghum bicolor at 100 ppm after 3 days; type: functional; conditions: 72 h

Compound | Activity (Cucumis sativus [1]) | Activity (Cucumis sativus [2]) | inhibition at 1000 ppm (Sorghum bicolor [3]) [%] | Activity (Cucumis sativus [4]) | inhibition at 100 ppm (Sorghum bicolor [5]) [%]
CC1(C)CCC[C@]2(C)[C@H]3Cc4occc4[C@@](C)(O)[C@@H]3[C@@H](O)[C@H](O)[C@@H]12 | inactive | Active | 13 |  | 
CC1(C)CCC[C@]2(C)[C@H]3Cc4occc4[C@@H](C(=O)O)[C@@H]3[C@@H](O)[C@H](O)[C@@H]12 |  | Active | 65 | Active | 39
CC1(C)CCC[C@]2(C)[C@H]3Cc4occc4[C@H]4C(=O)O[C@@H]([C@H](O)[C@@H]12)[C@@H]43 | inactive | Active | 13 |  | 
C[C@]1(CO)CCC[C@]2(C)[C@H]3Cc4occc4[C@@](C)(O)[C@@H]3[C@@H](O)[C@H](O)[C@@H]12 |  | Active | 13 | Active | 

From ChEMBL document CHEMBL1158218, “Structure and Plant Growth Regulatory Activity of New Diterpenes from Pterodon polygalaeflorus” (1996)
